From PubChem BioAssay (NCI)
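Dose response: 5 concentrations. Exposure: 48 h. Format: 96-well plates. Endpoint: linear interpolation; highest concentration if not reached. GI50: concentration for 50% inhibition of growth. TGI: concentration producing complete growth inhibition.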

Legend:
Experiment in all cases: inhibition of tumour cell growth, NCI panel, 48 h
786-0 renal = test system: 786-0 renal
A498 renal = test system: A498 renal
A549 NSCLC = test system: A549 NSCLC
ACHN renal = test system: ACHN renal
BT-549 breast = test system: BT-549 breast
CAKI-1 renal = test system: CAKI-1 renal
CCRF-CEM leukemia = test system: CCRF-CEM leukemia
COLO 205 colon = test system: COLO 205 colon
DU-145 prostate = test system: DU-145 prostate
EKVX NSCLC = test system: EKVX NSCLC
HCC-2998 colon = test system: HCC-2998 colon
HCT-116 colon = test system: HCT-116 colon
HCT-15 colon = test system: HCT-15 colon
HL-60(TB) leukemia = test system: HL-60(TB) leukemia
HOP-92 NSCLC = test system: HOP-92 NSCLC
HS 578T breast = test system: HS 578T breast
HT29 colon = test system: HT29 colon
IGROV1 ovarian = test system: IGROV1 ovarian
K-562 leukemia = test system: K-562 leukemia
KM12 colon = test system: KM12 colon
LOX IMVI melanoma = test system: LOX IMVI melanoma
M14 melanoma = test system: M14 melanoma
MALME-3M melanoma = test system: MALME-3M melanoma
MCF7 breast = test system: MCF7 breast
MDA-MB-231 breast = test system: MDA-MB-231 breast
MDA-MB-435 = test system: MDA-MB-435
MOLT-4 leukemia = test system: MOLT-4 leukemia
NCI-H226 lung = test system: NCI-H226 lung
NCI-H23 lung = test system: NCI-H23 lung

Cc1c(Cl)c(C)c(Cc2c(C)c(Cl)c(C)c(Cl)c2O)c(O)c1Cl
GI50 (786-0 renal): 2.98 µM | TGI (786-0 renal): 9.84 µM | GI50 (A498 renal): 2.04 µM | TGI (A498 renal): 6.35 µM | GI50 (A549 NSCLC): 4.07 µM | TGI (A549 NSCLC): 18.6 µM | GI50 (ACHN renal): 2.32 µM | TGI (ACHN renal): 6.88 µM | GI50 (BT-549 breast): 2.37 µM | TGI (BT-549 breast): 8.33 µM | GI50 (CAKI-1 renal): 2.3 µM | TGI (CAKI-1 renal): 9.77 µM | GI50 (CCRF-CEM leukemia): 2.57 µM | TGI (CCRF-CEM leukemia): 12.6 µM | GI50 (COLO 205 colon): 3.04 µM | TGI (COLO 205 colon): 9.24 µM | GI50 (DU-145 prostate): 4.83 µM | TGI (DU-145 prostate): 16.6 µM | GI50 (EKVX NSCLC): 2.64 µM | TGI (EKVX NSCLC): 9.25 µM | GI50 (HCC-2998 colon): 3.8 µM | TGI (HCC-2998 colon): 11.6 µM | GI50 (HCT-116 colon): 2.42 µM | TGI (HCT-116 colon): 10.5 µM | GI50 (HCT-15 colon): 2.32 µM | TGI (HCT-15 colon): 10.7 µM | GI50 (HL-60(TB) leukemia): 2.92 µM | TGI (HL-60(TB) leukemia): 11.2 µM | GI50 (HOP-92 NSCLC): 1.16 µM | TGI (HOP-92 NSCLC): 4.74 µM | GI50 (HS 578T breast): 2.71 µM | TGI (HS 578T breast): 9.55 µM | GI50 (HT29 colon): 3.84 µM | TGI (HT29 colon): 12.7 µM | GI50 (IGROV1 ovarian): 4.07 µM | TGI (IGROV1 ovarian): 19 µM | GI50 (K-562 leukemia): 2.21 µM | TGI (K-562 leukemia): 14.1 µM | GI50 (KM12 colon): 3.34 µM | TGI (KM12 colon): 11.4 µM | GI50 (LOX IMVI melanoma): 3.18 µM | TGI (LOX IMVI melanoma): 10.5 µM | GI50 (M14 melanoma): 3.53 µM | TGI (M14 melanoma): 14.4 µM | GI50 (MALME-3M melanoma): 2.33 µM | TGI (MALME-3M melanoma): 5.97 µM | GI50 (MCF7 breast): 2.14 µM | TGI (MCF7 breast): 8.37 µM | GI50 (MDA-MB-231 breast): 2.38 µM | TGI (MDA-MB-231 breast): 7.2 µM | GI50 (MDA-MB-435): 3.13 µM | TGI (MDA-MB-435): 11.1 µM | GI50 (MOLT-4 leukemia): 3.24 µM | TGI (MOLT-4 leukemia): 13.4 µM | GI50 (NCI-H226 lung): 2.52 µM | TGI (NCI-H226 lung): 10.7 µM | GI50 (NCI-H23 lung): 2.46 µM
